In patent publication US20050288230A1, “Non-steroidal anti-androgen therapy” (AstraZeneca AB, priority 2002, published 2005):

Legend:
[1] = test system: patients; assay: Randomized open-label study: change in BMD by DEXA, bicalutamide 150 mg daily vs medical castration; format: in vivo, human; conditions: for lumbar spine BMD increase compared to pre-treatment baseline: 150 mg
Protocol: Inclusion criteria for a prospective, multicentre, randomized, open-label, parallel-group study, included: disease stage T1-T4, Nx, and M0 for which immediate hormonal ablation was indicated; and Eastern Cooperative Oncology Group (ECOG) performance status 0 or 1.
Patients were randomized in a 1:1 ratio to receive either bicalutamide 150 mg daily or medical castration with a luteinizing hormone-releasing hormone (LHRH) agonist for 2 years.
Primary efficacy endpoints were percentage change from baseline in BMD measures (lumbar spine and hip) at 96 weeks.
An analysis of covariance (ANCOVA) model was used to analyse the primary efficacy endpoints. Analysis was performed for patients for whom data were available at baseline and at Week 96. Subsidiary analyses were performed, carrying forward the last patient assessment at time points where data were missing. A p value of ≦0.017 was considered statistically significant.
Secondary endpoints included: percentage change in lumbar spine-BMD and hip-BMD from baseline to 24, 48 and 72 weeks.
Secondary efficacy endpoints were also analyzed using an ANCOVA model. BMD were assessed via dual energy X-ray absorptiometry (DEXA).
103 patients were recruited to the study and randomized 1:1 to receive either bicalutamide (R/S racemate) 150 mg (n=51) or medical castration (n=52). • The treatment groups were well balanced at baseline (Table 1). • The median testosterone level at baseline was 414.7 ng/dL in the bicalutamide 150 mg group (n=48) and 477.9 ng/dL in the medical castration group (n=52). • Median baseline values for albumin, total calcium, 25-hydroxy vitamin D, and thyroid-stimulating hormone were similar in the two treatment groups. Bone Mineral Density

[2] = test system: patients; conditions: Casodex 150 monotherapy, preliminary data; cited from earlier work
[3] = test system: humans; conditions: single agent therapy, blood; cited from earlier work
[4] = test system: adult men; conditions: cited from earlier work

SMILES | lumbar spine BMD increase compared to pre-treatment baseline ([1]; 24 weeks) | lumbar spine BMD increase compared to pre-treatment baseline ([1]; 48 weeks) | lumbar spine BMD increase compared to pre-treatment baseline ([1]; 72 weeks) | BMD compared to baseline (in words) ([1]; in vivo) | bone mineral density (in words) [2] | basal level of total testosterone [3] | testosterone and LH (in words) [4]
CC(O)(CS(=O)(=O)c1ccc(F)cc1)C(=O)Nc1ccc(C#N)c(C(F)(F)F)c1 (stereo not drawn) [Bicalutamide, 4′-cyano-α′,α′,α′-trifluoro-3-(4-fluorophenylsulphonyl)-2-hydroxy-2-methylpropiono-m-toluidide] | 1.05% | 1.76% | 2.22% | statistically significant increase in BMD compared to baseline | maintains bone mineral density | approximate doubling | 
CC/C(=C(\c1ccccc1)c1ccc(OCCN(C)C)cc1)c1ccccc1 [tamoxifen] |  |  |  |  |  |  | increase testosterone and LH
